Assay results published in ChEMBL document CHEMBL3217677, “Synthesis, biological evaluation and X-ray crystallographic studies of imidazo[1,2-a]pyridine-based Mycobacterium tuberculosis glutamine synthetase inhibitors” (Medchemcomm, 2012).

Assay: Inhibition of Mycobacterium tuberculosis glutamine synthetase expressed in Escherichia coli GJ4745 after 1 hr by colorimetry

SMILES	IC50
Cn1c(N2CCOCC2)nc2c1c(=O)n(Cc1ccc(Cl)c(Cl)c1)c(=O)n2C	2.5 µM
CC(C)Nc1c(-c2ccc(F)c(F)c2F)nc2ccc(Br)cn12	> 25 µM
Oc1ccc(-c2nc3ccc(Br)cn3c2NC2CCCCC2)c(Cl)c1	> 25 µM
CS(=O)(=O)c1cc(Cl)ccc1-c1nc2ccc(Br)cn2c1NC1CCCC1	> 25 µM
COc1ccc(Nc2c(-c3ccc(OCc4ccccc4)c(OCc4ccccc4)c3)nc3ccc(Br)cn23)cc1	> 25 µM
Fc1cc(-c2nc3ccc(Br)cn3c2NC2CCCC2)ccc1N1CCOCC1	> 25 µM
CCCCNc1c(-c2ccc(OCCO)cc2)nc2ccc(Br)cn12	3 µM
CN(C)c1ccc(-c2nc3ccc(Br)cn3c2NC2CCCC2)cc1	> 25 µM
COc1cccc(-c2nc3ccc(Br)cn3c2NCCN2CCOCC2)c1OC	> 25 µM
COc1cccc(-c2nc3ccc(Br)cn3c2NC2CCCC2)c1OCc1ccccc1	> 25 µM
CC(C)(C)Nc1c(-c2ccccc2O)nc2ccc(Br)cn12	> 25 µM
Brc1ccc2nc(-c3ccccc3-c3ccccc3)c(NC3CCCC3)n2c1	> 25 µM
CC(C)Nc1c(-c2cccc(N3CCOCC3)c2)nc2ccc(Br)cn12	> 25 µM
Brc1ccc2nc(-c3ccccc3)c(NCCc3ccccc3)n2c1	> 25 µM
CC(C)Nc1c(-c2ccc(OCCO)cc2)nc2ccc(Br)cn12	> 25 µM
OCCOc1ccc(-c2nc3ccc(Br)cn3c2Nc2ccc(F)cc2)cc1	> 25 µM

SMILES	IC50
OCCOc1ccc(-c2nc3ccc(Br)cn3c2NC2CCCC2)cc1	> 25 µM
CCCNc1c(-c2ccc(OCCO)cc2)nc2ccc(Br)cn12	3.9 µM
CCCCCNc1c(-c2ccc(OCCO)cc2)nc2ccc(Br)cn12	4.9 µM
CCCCNc1c(-c2ccc(N(C)CCO)cc2)nc2ccc(Br)cn12	8.3 µM
CCCCNc1c(-c2ccc(OCC(=O)O)cc2)nc2ccc(Br)cn12	1.6 µM
CCCCNc1c(-c2ccc(N(CCO)CCO)cc2)nc2ccc(Br)cn12	22 µM
CCCCNc1c(-c2ccc(OCCC)cc2)nc2ccc(Br)cn12	15 µM
CCCCNc1c(-c2ccc(OCC(N)=O)cc2)nc2ccc(Br)cn12	6.3 µM
CCCCNc1c(-c2ccc(OCCN(C)C)cc2)nc2ccc(Br)cn12	5.8 µM
CCCCNc1c(-c2ccc(OCC#N)cc2)nc2ccc(Br)cn12	10 µM
CCCCNc1c(-c2cccc(OCCO)c2)nc2ccc(Br)cn12	2.2 µM
CCCCNc1c(-c2ccc(OC)c(O)c2)nc2ccc(Br)cn12	1.9 µM
CCCCNc1c(-c2cccc(O)c2)nc2ccc(Br)cn12	1.4 µM
CCCCNc1c(-c2cccc(C(=O)O)c2)nc2ccc(Br)cn12	0.6 µM
CCCCNc1c(-c2ccc(O)c(OC)c2)nc2ccc(Br)cn12	1.5 µM
